Values joined by “and” are separate entries in the source; they are usually repeats but may differ in a detail not shown here. Equal entries are not always repeated.
Test system: Swiss mice, Sarcoma 180 sc, mean tumor weight T/C
Test: NCI In Vivo Anticancer Drug Screen. Data for tumor model Sarcoma 180 (subcutaneous) in Swiss mice
Conditions: endpoint: mean tumor weight, higher = larger tumour
In short: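 Readout is the ratio of treated-group measurement to vehicle-control measurement (T/C), based on survival or tumor size in mice carrying transplanted tumors.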

[1] = dose: 30.0 mg/kg/injection, schedule: Q01DX007 (ip), vehicle: carboxymethylcellulose (CMC)

**Q.** Which T/C (dose: 17.5 mg/kg/injection, schedule: Q#A X014 (ip), vehicle: methylcellulose (MC)) does the source give for O=C1N(Cl)C(=O)C(c2ccccc2)(c2ccc(F)cc2)N1Cl (centres undefined) here?
**A.** 121 % of control

**Q.** And the T/C (dose: 42.5 mg/kg/injection, schedule: Q#A X014 (ip), vehicle: methylcellulose (MC))?
**A.** 88 % of control

**Q.** What about the T/C (dose: 62.5 mg/kg/injection, schedule: Q#A X014 (ip), vehicle: methylcellulose (MC)) of the same compound?
**A.** 75 % of control

**Q.** CN(C)N=Nc1n[nH]nc1C(N)=O was tested. Which T/C (dose: 31.0 mg/kg/injection, schedule: Q01DX007 (ip), vehicle: carboxymethylcellulose (CMC)) did it give?
**A.** 70 % of control

**Q.** And the T/C (dose: 62.0 mg/kg/injection, schedule: Q01DX007 (ip), vehicle: carboxymethylcellulose (CMC))?
**A.** 84 % of control

**Q.** And the T/C (dose: 125.0 mg/kg/injection, schedule: Q01DX007 (ip), vehicle: carboxymethylcellulose (CMC))?
**A.** 43 % of control

**Q.** Which results are given for CSc1ncnc2c1ncn2C1OC(CO)C(O)C1O (centres undefined)?
**A.** T/C (dose: 12.5 mg/kg/injection, schedule: Q01DX007 (ip), vehicle: saline): 72 % of control; T/C (dose: 15.0 mg/kg/injection, schedule: Q01DX007 (ip), vehicle: saline): 88 % of control; T/C (dose: 17.5 mg/kg/injection, schedule: Q01DX007 (ip), vehicle: saline): 94 % of control; T/C (dose: 20.0 mg/kg/injection, schedule: Q01DX007 (ip), vehicle: saline): 73 % of control

**Q.** Which results are given for [Cl][Pt+2]([Cl])([Cl])[Cl].[Na+].[S-]c1ncnc2nc[nH]c12.[S-]c1ncnc2nc[nH]c12?
**A.** T/C (dose: 1.1 mg/kg/injection, schedule: Q01DX007 (ip), vehicle: carboxymethylcellulose (CMC)): 92 % of control; T/C (dose: 10.0 mg/kg/injection, schedule: Q01DX007 (ip), vehicle: carboxymethylcellulose (CMC)): 45 % of control; T/C (dose: 19.0 mg/kg/injection, schedule: Q01DX007 (ip), vehicle: carboxymethylcellulose (CMC)): 74 % of control; T/C (dose: 20.0 mg/kg/injection, schedule: Q01DX007 (ip), vehicle: carboxymethylcellulose (CMC)): 40 % of control; T/C (dose: 22.0 mg/kg/injection, schedule: Q#A X014 (ip), vehicle: methylcellulose (MC)): 47 % of control and 50 % of control; T/C (dose: 22.2 mg/kg/injection, schedule: Q#A X014 (ip), vehicle: carboxymethylcellulose (CMC)): 29 % of control; T/C (dose: 29.0 mg/kg/injection, schedule: Q01DX007 (ip), vehicle: carboxymethylcellulose (CMC)): 43 % of control; T/C [1]: 54 % of control; T/C (dose: 33.3 mg/kg/injection, schedule: Q#A X014 (ip), vehicle: carboxymethylcellulose (CMC)): 24 % of control; T/C (dose: 44.0 mg/kg/injection, schedule: Q01DX007 (ip), vehicle: carboxymethylcellulose (CMC)): 38 % of control and 41 % of control; T/C (dose: 50.0 mg/kg/injection, schedule: Q#A X014 (ip), vehicle: carboxymethylcellulose (CMC)): 10 % of control; T/C (dose: 50.0 mg/kg/injection, schedule: Q#A X014 (ip), vehicle: methylcellulose (MC)): 24 % of control and 44 % of control; T/C (dose: 65.0 mg/kg/injection, schedule: Q01DX007 (ip), vehicle: carboxymethylcellulose (CMC)): 28 % of control; T/C (dose: 66.0 mg/kg/injection, schedule: Q01DX007 (ip), vehicle: carboxymethylcellulose (CMC)): 57 % of control; T/C (dose: 75.0 mg/kg/injection, schedule: Q#A X014 (ip), vehicle: carboxymethylcellulose (CMC)): 7 % of control; T/C (dose: 75.0 mg/kg/injection, schedule: Q#A X014 (ip), vehicle: methylcellulose (MC)): 16 % of control and 34 % of control; T/C (dose: 220.0 mg/kg/injection, schedule: Q01DX007 (ip), vehicle: carboxymethylcellulose (CMC)): 11 % of control; T/C (dose: 300.0 mg/kg/injection, schedule: Q01DX007 (ip), vehicle: carboxymethylcellulose (CMC)): 1 % of control

**Q.** With Nc1nc(Cc2ccccc2)cc(=O)[nH]1 as the compound, how does the T/C (dose: 62.5 mg/kg/injection, schedule: Q01DX007 (ip), vehicle: water) read?
**A.** 88 % of control

**Q.** What about the T/C (dose: 125.0 mg/kg/injection, schedule: Q01DX007 (ip), vehicle: water) of the same compound?
**A.** 78 % of control

**Q.** What about the T/C (dose: 250.0 mg/kg/injection, schedule: Q01DX007 (ip), vehicle: water) of the same compound?
**A.** 67 % of control

**Q.** Which T/C (dose: 1.3 mg/kg/injection, schedule: Q#A X014 (ip), vehicle: saline) does the source give for CN1C=c2c3c(ccc2=C2C=CC4C=C5OCOC5=CC4=C21)OCO3 (centres undefined) here?
**A.** 105 % of control

**Q.** And the T/C (dose: 2.0 mg/kg/injection, schedule: Q#A X014 (ip), vehicle: saline)?
**A.** 82 % of control

**Q.** What about the T/C (dose: 3.0 mg/kg/injection, schedule: Q#A X014 (ip), vehicle: saline) of the same compound?
**A.** 79 % of control and 96 % of control

**Q.** And the T/C (dose: 10.0 mg/kg/injection, schedule: Q#A X014 (ip), vehicle: saline)?
**A.** 28 % of control

**Q.** What about the T/C (dose: 12.0 mg/kg/injection, schedule: Q#A X014 (oral), vehicle: saline) of the same compound?
**A.** 84 % of control

**Q.** What about the T/C (dose: 18.0 mg/kg/injection, schedule: Q#A X014 (oral), vehicle: saline) of the same compound?
**A.** 70 % of control

**Q.** And the T/C (dose: 27.0 mg/kg/injection, schedule: Q#A X014 (oral), vehicle: saline)?
**A.** 73 % of control

**Q.** And the T/C (dose: 60.0 mg/kg/injection, schedule: Q#A X014 (oral), vehicle: saline)?
**A.** 53 % of control

**Q.** Which results are given for CN1CC(=O)N=C1N?
**A.** T/C (dose: 500.0 mg/kg/injection, schedule: Q#A X014 (ip), vehicle: water): 74 % of control; T/C (dose: 1500.0 mg/kg/injection, schedule: Q#A X014 (ip), vehicle: water): 73 % of control

**Q.** Which T/C (dose: 15.0 mg/kg/injection, schedule: Q01DX007 (ip), vehicle: carboxymethylcellulose (CMC)) does the source give for CCCCNC(=O)c1n[se]nc1NC(N)=O here?
**A.** 94 % of control

**Q.** What about the T/C [1] of the same compound?
**A.** 114 % of control

**Q.** With N=C(c1nsnc1N)N1CCCC1 as the compound, how does the T/C (dose: 125.0 mg/kg/injection, schedule: Q01DX007 (ip), vehicle: saline) read?
**A.** 100 % of control

**Q.** NC(=O)c1cn(C2OC(CO)C(O)C2O)c2ncnc(N)c12 (centres undefined) was tested. Which T/C (dose: 0.5 mg/kg/injection, schedule: Q01DX007 (ip), vehicle: carboxymethylcellulose (CMC)) did it give?
**A.** 87 % of control

**Q.** What does the source list for CC(=O)OCC1OC(n2ccc(N)nc2=O)C(OC(C)=O)C1OC(C)=O (centres undefined)?
**A.** T/C (dose: 50.0 mg/kg/injection, schedule: Q01DX007 (oral), vehicle: carboxymethylcellulose (CMC)): 44 % of control; T/C (dose: 100.0 mg/kg/injection, schedule: Q01DX007 (oral), vehicle: carboxymethylcellulose (CMC)): 32 % of control; T/C (dose: 200.0 mg/kg/injection, schedule: Q01DX007 (oral), vehicle: carboxymethylcellulose (CMC)): 32 % of control; T/C (dose: 400.0 mg/kg/injection, schedule: Q01DX007 (oral), vehicle: carboxymethylcellulose (CMC)): 63 % of control

**Q.** Which results are given for C[C@H]1CC[C@@H]2[C@@H](C)[C@H]3[C@H](C[C@H]4[C@@H]5CC=C6C[C@@H](O)CC[C@]6(C)[C@H]5C[C@H](O)[C@]34C)N2C1?
**A.** T/C (dose: 10.0 mg/kg/injection, schedule: Q01DX007 (sc), vehicle: steriod suspending solution): 73 % of control; T/C (dose: 50.0 mg/kg/injection, schedule: Q01DX007 (sc), vehicle: steriod suspending solution): 44 % of control; T/C (dose: 100.0 mg/kg/injection, schedule: Q01DX007 (sc), vehicle: steriod suspending solution): 62 % of control

**Q.** For NC(=O)NO, which T/C (dose: 16.0 mg/kg/injection, schedule: Q01DX007 (ip), vehicle: carboxymethylcellulose (CMC)) is on record?
**A.** 89 % of control

**Q.** What about the T/C (dose: 32.0 mg/kg/injection, schedule: Q01DX007 (ip), vehicle: carboxymethylcellulose (CMC)) of the same compound?
**A.** 111 % of control

**Q.** What about the T/C (dose: 64.0 mg/kg/injection, schedule: Q01DX007 (ip), vehicle: carboxymethylcellulose (CMC)) of the same compound?
**A.** 112 % of control

**Q.** What about the T/C (dose: 128.0 mg/kg/injection, schedule: Q01DX007 (ip), vehicle: carboxymethylcellulose (CMC)) of the same compound?
**A.** 69 % of control

**Q.** How did the T/C (dose: 5.0 mg/kg/injection, schedule: Q01DX007 (sc), vehicle: olive oil, sesame oil, peanut oil) turn out when CC1=CC(O)C(O)C2(C)C1CC1OC(=O)C(O)C3C(C)C(O)C4(O)OCC13C42 (centres undefined) was run?
**A.** 90 % of control

**Q.** And the T/C (dose: 10.0 mg/kg/injection, schedule: Q01DX007 (sc), vehicle: olive oil, sesame oil, peanut oil)?
**A.** 64 % of control

**Q.** What about the T/C (dose: 20.0 mg/kg/injection, schedule: Q01DX007 (sc), vehicle: olive oil, sesame oil, peanut oil) of the same compound?
**A.** 96 % of control

**Q.** And the T/C (dose: 40.0 mg/kg/injection, schedule: Q01DX007 (sc), vehicle: olive oil, sesame oil, peanut oil)?
**A.** 85 % of control and 86 % of control

**Q.** What about the T/C (dose: 135.0 mg/kg/injection, schedule: Q01DX007 (sc), vehicle: olive oil, sesame oil, peanut oil) of the same compound?
**A.** 83 % of control

**Q.** How did the T/C (dose: 6.25 mg/kg/injection, schedule: Q01DX007 (ip), vehicle: carboxymethylcellulose (CMC)) turn out when CCc1nc(N)nc(N)c1-c1ccc(Cl)cc1 was run?
**A.** 114 % of control

**Q.** And the T/C (dose: 12.5 mg/kg/injection, schedule: Q01DX007 (ip), vehicle: carboxymethylcellulose (CMC))?
**A.** 88 % of control

**Q.** What about the T/C (dose: 25.0 mg/kg/injection, schedule: Q01DX007 (ip), vehicle: carboxymethylcellulose (CMC)) of the same compound?
**A.** 114 % of control

**Q.** And the T/C (dose: 50.0 mg/kg/injection, schedule: Q01DX007 (ip), vehicle: carboxymethylcellulose (CMC))?
**A.** 77 % of control

**Q.** What does the source list for CCC1=C(c2cc(Cl)c3ccccc3c2OCC(=O)O)OC(CC)(C(=O)c2cc(Cl)c3ccccc3c2OCC(=O)O)CC1 (centres undefined)?
**A.** T/C (dose: 2.0 mg/kg/injection, schedule: Q01DX007 (ip), vehicle: other): 110 % of control; T/C (dose: 4.0 mg/kg/injection, schedule: Q01DX007 (ip), vehicle: other): 120 % of control; T/C (dose: 8.0 mg/kg/injection, schedule: Q01DX007 (ip), vehicle: other): 90 % of control; T/C (dose: 16.0 mg/kg/injection, schedule: Q01DX007 (ip), vehicle: other): 112 % of control; T/C (dose: 75.0 mg/kg/injection, schedule: Q01DX007 (ip), vehicle: other): 95 % of control; T/C (dose: 111.0 mg/kg/injection, schedule: Q01DX007 (ip), vehicle: other): 49 % of control

**Q.** With CC(=O)OCC(=O)[C@@]1(O)CC[C@H]2[C@@H]3CCC4=CC(=O)CC[C@]4(C)[C@H]3[C@@H](O)C[C@@]21C as the compound, how does the T/C (dose: 12.5 mg/kg/injection, schedule: Q#A X014 (ip), vehicle: steriod suspending solution) read?
**A.** 70 % of control

**Q.** And the T/C (dose: 25.0 mg/kg/injection, schedule: Q#A X014 (ip), vehicle: steriod suspending solution)?
**A.** 88 % of control

**Q.** And the T/C (dose: 50.0 mg/kg/injection, schedule: Q#A X014 (ip), vehicle: steriod suspending solution)?
**A.** 57 % of control
